Measurements reported in patent US11945783B1, “4-(4,5-bis(4-bromophenyl)-2-(4-methoxyphenyl)-1H-imidazol-1-yl)butanoic acid as an antimicrobial compound” (KING FAISAL UNIVERSITY, priority 2023, dated 2024).

Tests used:
Assay type in all cases: cell-based
[1] = tested on: Bacillus cereus; test: Agar plate disc-diffusion, antibacterial; details: nutrient agar, 37° C., 48 hours
Protocol: (§1) The agar plate disc-diffusion method was applied. […] The discs were then placed onto the surface of agar plates (nutrient agar for bacteria and Sabouraud's dextrose agar for fungi) seeded with the test organism. Each plate contained 15 mL of the agar medium, previously seeded with 0.2 mL of the broth culture of each organism pregrown for 18 hours. The plates were incubated at 37° C. for 48 hours, and 72 hours for fungi. The inhibition zones was measured in mm. Discs impregnated with DMSO were used as a control, and its inhibition zone was subtracted from the tested compound actual inhibition zone.

[2] = tested on: Escherichia coli; test: Agar plate disc-diffusion, antibacterial; details: nutrient agar, 37° C., 48 hours
Protocol: as §1

[3] = tested on: Pseudomonas aeruginosa; test: Agar plate disc-diffusion, antibacterial; details: nutrient agar, 37° C., 48 hours
Protocol: as §1

[4] = tested on: Staphylococcus aureus; test: Agar plate disc-diffusion, antibacterial; details: nutrient agar, 37° C., 48 hours
Protocol: as §1

[5] = tested on: Aspergillus flavus; test: Agar plate disc-diffusion, antifungal; details: Sabouraud's dextrose agar, 72 hours
Protocol: as §1

[6] = tested on: Chrysosporium keratinophilum; test: Agar plate disc-diffusion, antifungal; details: Sabouraud's dextrose agar, 72 hours
Protocol: as §1

[7] = A = concentration of comp. = 10,000 μL
[8] = B = concentration of comp. = 30,000 μL
[9] = C = concentration of comp. = 50,000 μL
[10] = A = concentration of comp. = 10,000 μg/mL

SMILES: O=C(O)c1cn(C2CC2)c2cc(N3CCNCC3)c(F)cc2c1=O [Cip., ciprofloxacin]
- inhibition zone [1, 7]: 29 mm
- inhibition zone [1, 8]: 31 mm
- inhibition zone [1, 9]: 42 mm
- inhibition zone [2, 7]: 30 mm
- inhibition zone [2, 8]: 39 mm
- inhibition zone [2, 9]: 60 mm
- inhibition zone [3, 10]: 29 mm
- inhibition zone [3, 8]: 30 mm
- inhibition zone [3, 9]: 53 mm
- inhibition zone [4, 7]: 43 mm
- inhibition zone [4, 8]: 44 mm
- inhibition zone [4, 9]: 53 mm
- inhibition zone [5, 7]: 29 mm
- inhibition zone [5, 8]: 32 mm
- inhibition zone [5, 9]: 42 mm
- inhibition zone [6, 7]: 29 mm
- inhibition zone [6, 8]: 30 mm
- inhibition zone [6, 9]: 53 mm

SMILES: COc1ccc(-c2nc(-c3ccc(Br)cc3)c(-c3ccc(Br)cc3)n2CCCC(=O)O)cc1 [V, 4-(4,5-bis(4-bromophenyl)-2-(4-methoxyphenyl)-1H-imidazol-1-yl)butanoic acid]
- inhibition zone [1, 7]: 28 mm
- inhibition zone [1, 8]: 30 mm
- inhibition zone [1, 9]: 41 mm
- inhibition zone [2, 7]: 26 mm
- inhibition zone [2, 8]: 35 mm
- inhibition zone [2, 9]: 47 mm
- inhibition zone [3, 10]: 21 mm
- inhibition zone [3, 8]: 24 mm
- inhibition zone [3, 9]: 35 mm
- inhibition zone [4, 7]: 18 mm
- inhibition zone [4, 8]: 20 mm
- inhibition zone [4, 9]: 30 mm
- inhibition zone [5, 7]: 19 mm
- inhibition zone [5, 8]: 21 mm
- inhibition zone [5, 9]: 32 mm
- inhibition zone [6, 7]: 26 mm
- inhibition zone [6, 8]: 28 mm
- inhibition zone [6, 9]: 50 mm
